“Also recorded” adds a separate entry of the source.
Columns and labels:
[1] = tested on: immature rat Leydig cells; experiment: Thymidine incorporation assay (DNA synthesis) in immature rat Leydig cells; type: cell-based; conditions: 3H-thymidine incorporation
Method: Immature rat Leydig cells (ILC) were isolated from 10-day old rat testes and cultured with serum-free medium before treatment. Immature rats were sacrificed at 10 days of age, and the testes were removed Immature Leydig cells were isolated and cultured. The decapsulated testes were incubated for 5 min in culture medium containing 0.25 mg collagenase/ml (Type I, Sigma) in shaking water bath. The seminiferous tubules were allowed to settle at unit gravity for 5 min, and the supernatant containing the suspension of interstitial cells was removed. The supernatant was centrifuged at 90×g for 10 min, and the cell pellet was washed twice by re-suspension in fresh medium followed by centrifugation. […] Immature Leydig cells cultured in 24-well plates (2×10^5 cells/well) were treated with several doses of oLH for 48 h, and the conditioned media were analyzed for androgen content.
Immature rat Leydig cells and various cancer cell lines were starved for 48 hours before treatment. […] The incubation media were collected (Leydig cells) and analyzed for total androgen production. ^3H-thymidine (1 μCi/ml) was added to the cells for further 4 hours incubation. […] The filter membranes were then put in vials filled with scintillation fluid, and the radioactivity was measured by a Beckman β-counter.

[2] = tested on: human ovarian epithelial cancer (HEY) cells; experiment: Thymidine incorporation assay (DNA synthesis) in HEY cells; type: cell-based; conditions: different doses of peptide
Method: (§1) Ovarian (HEY, SKA), prostate (DU145, PC3) and breast (MCF7) cancer cell lines were cultured and maintained using well-established culture procedures.
(§2) Immature rat Leydig cells and various cancer cell lines were starved for 48 hours before treatment. The cells were then treated with SIP, the polypeptide having the amino acid sequence identified as SEQ ID NO:2, LH, and EGF for 18 hours. The incubation media were collected (Leydig cells) and analyzed for total androgen production. ^3H-thymidine (1 μCi/ml) was added to the cells for further 4 hours incubation. Then the hot media were removed; ice-cold water was added to the cells which were lysed by sonication. The cell lysates were filterd through DE81 ion-exchanger filters. The filter membranes were then put in vials filled with scintillation fluid, and the radioactivity was measured by a Beckman β-counter.

[3] = tested on: immature rat Leydig cells and ovarian, prostate and liver cancer cell lines; experiment: DNA synthesis in Leydig cells and cancer cell lines (summary of FIGS. 8-10); type: cell-based
Method: as §1, §2

[4] = tested on: rat Leydig cells; experiment: Testosterone production by rat Leydig cells (radioimmunoassay); type: cell-based; conditions: cultured 6, 24 or 48 hours; for testosterone production: radioimmunoassay
Method: Immature rat Leydig cells (ILC) were isolated from 10-day old rat testes and cultured with serum-free medium before treatment. Immature rats were sacrificed at 10 days of age, and the testes were removed Immature Leydig cells were isolated and cultured. The decapsulated testes were incubated for 5 min in culture medium containing 0.25 mg collagenase/ml (Type I, Sigma) in shaking water bath. The seminiferous tubules were allowed to settle at unit gravity for 5 min, and the supernatant containing the suspension of interstitial cells was removed. The supernatant was centrifuged at 90×g for 10 min, and the cell pellet was washed twice by re-suspension in fresh medium followed by centrifugation. The cell suspension was plated in 24-well tissue culture plates (Nunclon; Nunc, Roskilde, Denmark; 2×10^5 cells/well) or in 6-well plates (2×10^6 cells/well) depending upon the end point of the experiment. The cells were cultured at 37° C. in a humidified atmosphere of 5% CO2 and 95% air in serum-free medium. After 1 h, the immature Leydig cells were well attached to the surface of the culture plates, whereas contaminating cells (Sertoli cells, germ cells, precursor Leydig cells) were loosely attached. The cells were washed three times with medium to remove loosely attached cells. At this stage, the cell preparation contains more than 90% immature Leydig cells. Immature Leydig cells cultured in 24-well plates (2×10^5 cells/well) were treated with several doses of oLH for 48 h, and the conditioned media were analyzed for androgen content.
Immature Leydig cells were cultured for 18 h and treated with different concentrations of oLH, SIP and EGF. […] The incubation media were collected and analyzed for total androgens using a radioimmunoassay, as described previously (Dickson et al., 2002). […] All samples were analyzed in the same assay, and the intra-assay coefficient of variation was <10%.

[5] = tested on: StAR mRNA; experiment: StAR mRNA expression in rat Leydig cells (RT-PCR); type: cell-based; conditions: Leydig cells treated for 24 hour
Method: Total RNA was isolated from Leydig cells using TRIzol (Invitrogen, Carlsbad, Calif.) followed by chloroform extraction and isopropanol precipitation. Two micrograms of total RNA were reverse transcribed at 37° C. for 1 h in a reaction mixture containing 0.5 mM dNTP (Fisher Scientific), 400 U of M-MLV Reverse Transcriptase (Promega), 1×RT buffer, 0.5 mM dithiotreitol (Bio-Rad) and 0.5 μg of oligo dT (Promega). After incubation, the RT enzyme was heat inactivated at 70° C. for […] and the reaction cooled to 4° C. Four microliters of RT reactions were added to separate PCR reaction mixtures (total 10 μl) containing 0.1 mM dNTPs, (Fisher), 0.5 U Tag DNA polymerase (PGC Scientifics, Frederick, Md.), 1×PCR buffer with 3 mM MgC12 (Idaho Technology, Salt Lake City, Utah) and […] of the specific primers for the following genes: scavenger receptor B type 1 (SR-B1), cytochrome P450 cholesterol side-chain cleavage (P450scc), 3β-hydroxysteroid dehydrogenase (3β-HSD), 17 alpha-hydroxylase/C17-20 lyase (P450c17) and steroidogenic acute regulatory (StAR) protein. L19 (a ribosomal protein) primer pair was used as internal control. The following protocol was used in the Rapid Cycler thermal cycler (Idaho Technology): 94° C. for 15 s (initial denaturation), followed by 94° C. for 0 s, 60° C. for 0 s, 72° C. for 20 s for 35 cycles, and 72° C. for 30 s (final extension). […]

[6] = tested on: StAR protein; experiment: StAR protein expression in rat Leydig cells (Western blotting); type: cell-based; conditions: Leydig cells treated for 24 hour, listed as synthetic peptide 2
[7] = tested on: tyrosine phosphorylation of Leydig cell proteins; experiment: Tyrosine phosphorylation of Leydig cell proteins (phospho-tyrosine immunoblot); type: cell-based, rat; conditions: Leydig cells treated for 30 minutes; listed as synthetic peptide 2
Method: (§3) To determine the effects of SIP and EGF on activation of proteins involved in either MAP-kinase or PI3-kinase signaling pathway, immature Leydig cells were cultured in 6-well plates. The cells were washed and treated with SIP (50 μg/ml) or EGF (10 ng/ml) for 30 min in the presence or absence of inhibitors of MAPK-kinase (PD98059; 25 μM) or PI3-kinase (LY294002; 5 μM). The cells were washed twice with ice-cold phosphate-buffered saline and lysed in lysis buffer (Cell Signaling Technology, Beverly, Mass.) containing 20 mM Tris-HCl (pH 7.5), 150 mM NaCl, 1 mM Na2EDTA, 1 mM EGTA, 1% Triton, 2.5 mM sodium pyrophosphate, 1 mM β-glycerophosphate, 1 mM Na3VO4, 1 μg/ml leupeptin and 1× protease inhibitor cocktail (Calbiochem, San Diego, Calif.). Protein concentrations were determined by the Lowry HS assay using the Bio-Rad DCProtein Assay kit (Bio-Rad, Hercules, Calif.) according to the instruction provided by the manufacturer. Cell lysates were mixed with Lammeli's buffer (62.5 mM Tris, pH 6.8, 2% SDS, 5% β-mercaptoethanol and 10% glycerol), and individual samples (25 μg protein) were subjected to SDS-PAGE in 10% gels and transferred to PVDF membranes (Millipore). The membranes were blocked overnight at 4° C. in TBST (50 mM Tris, pH 7.5, containing 0.15M NaCl, 0.05% Tween-20 and 4% fat-free skimmed milk). […]

[8] = tested on: MAP-kinase signaling pathway (Ras, MEK, ERK); experiment: Activation of MAP-kinase signaling pathway in Leydig cells (activation specific immunoblots); type: cell-based, rat; conditions: 30 minutes
Method: as §3

[9] = tested on: PI3-kinase/AKT pathway; experiment: Activation of PI3-kinase/AKT pathway in rat Leydig cells (activation specific antibodies); type: cell-based; conditions: 30 min
Method: as §3

[10] = tested on: Leydig cells; experiment: Effect of kinase inhibitors on SIP-stimulated DNA synthesis in Leydig cells; type: cell-based, rat; conditions: PD98059 25 μM; LY294002 5 μM; with SIP
Method: as §2
Immature Leydig cells were cultured for 18 h and treated with different concentrations of oLH, SIP and EGF. For some experiments, the cells were treated with oLH or SIP for 18 h in the absence or presence of inhibitors of tyrosine kinase (Genistein; 10 uM), MAPK-kinase (PD98059; 25 μM), PI3-kinase (LY294002; 5 μM) or PKA (H89; 10 μM) to determine the intracellular signaling pathways involved in the effects of SIP on androgen production. The incubation media were collected and analyzed for total androgens using a radioimmunoassay, as described previously (Dickson et al., 2002). […] All samples were analyzed in the same assay, and the intra-assay coefficient of variation was <10%.

In the case of DVNGGGATLPQPLYQTA [peptide 2], the DNA synthesis [1] is reported as “capable of inducing proliferation of immature rat Leydig cells”, the DNA synthesis [2] is reported as “capable of exerting mitogenic effects” and the “DNA synthesis in different cells” value [3] is reported as “significant stimulation of DNA synthesis”. The “testosterone production compared with purified SIP” value [4] was “not as high as those observed with purified SIP”, the testosterone production ([4]; listed as SEQ ID NO:2) was “significant stimulation of testosterone production” and the testosterone production ([4]; listed as synthetic SIP peptide 2) was “stimulation of testosterone production”. For the same compound, the “expression of StAR mRNA” value [5] was “induce the expression of StAR mRNA”, the “expression of StAR protein” value [6] was “stimulated the induction of StAR protein; also recorded: induce the expression of protein” and the “tyrosine phosphorylation of cell proteins” value [7] was “induces the phosphorylation of several proteins at tyrosine; also recorded: capable of binding to SIP receptors and initiating signaling cascade”. For the same compound, the “activation of MAP-kinase pathway (Ras, MEK, ERK1/ERK2 phosphorylation)” value [8] was “activated”, the “activation of MAP-kinase pathway (Ras, MEK, ERK1/ERK2 phosphorylation)” value ([8]; listed as synthetic peptide 2) was “significant induction of phosphorylation” and the “activation of PI3-kinase/AKT pathway (AKT phosphorylation)” value [9] was “activated”. For the same compound, the “activation of PI3-kinase/AKT pathway (AKT phosphorylation)” value ([9]; listed as synthetic peptide 2) was “significant induction of phosphorylation”.

With COc1cccc(-c2cc(=O)c3ccccc3o2)c1N [PD98059] the “effect of inhibitor on SIP effects on DNA synthesis” value [10] was “blocks the effects of SIP on DNA synthesis”.
